Patent publication US20210107886A1, “PREPARATION OF CYCLIC ACETALS FOR FUEL” (TRIAD NATIONAL SECURITY, LLC, priority 2019, published 2021)
Like-named read-outs stand apart in the source and are kept apart here.

Columns and labels:
[1] = Kinematic viscosity (Anton Paar SVM 3001); format: physicochemical; conditions: 40° C.
Description: (§1) All chemicals and reagent grade solvents were obtained from commercial vendors and were used as received. ^1H and ^13C NMR spectra were obtained at room temperature on a Bruker AV400 MHz spectrometer, with chemical shifts (6) referenced to the residual solvent signal (^1H and ^13C). GC/MS analysis was carried out using a Hewlett-Packard 6890 GC system equipped with a Hewlett-Packard 5973 mass selective detector. FT-IR measurements were collected on a Perkin Elmer Spectrum Two FT-IR, where a drop of compound was pressed between two KBr plates. FTIR shifts were: very strong (vs), strong (s), medium (m), and weak (w). Combustion calorimeter measurements were performed using an IKA C1 compact combustion calorimeter, the NHOC was calculated by taking into consideration the hydrogen content and subtracting from the gross heat of combustion. DSC measurements were performed using a Netzsch DCS 204 F1 Phoenix. Viscosity and density measurements were performed using an Anton Paar SVM 3001. Elemental analysis was performed by Atlantic Microlabs. YSI measurements were conducted at Yale University.
The physical properties of the five distinct dioxolanes obtained were analyzed to understand their potential as suitable fuel components.^4-5, 8, 16, 18-20 A tabulated summary of these properties are provided in Table 2. The first metric considered was viscosity. […] If a fuel's viscosity falls outside of the ASTM D 975 specification (>4 mm^2 s^−1), it often leads to poor atomization of the fuel, which results in poor combustion and a subsequent loss of power and decrease in fuel economy.^7 In this respect, compounds 1-5 could be used to thin biodiesel to meet standards for petroleum diesel.

[2] = Density (Anton Paar SVM 3001); format: physicochemical; conditions: 25° C.
Description: as §1
(§2) Two additional factors to consider for diesel fuel formulation are density and net heat of combustion (NHOC). Typically, for a chemical compound to be able to be blended with diesel, it should not decrease the density of the fuel mixture below 0.82 g mL-^1, as the energy content of the fuel brought into the engine is dependent on the density of the fuel.^17, 25 Compounds 1-5 maintained densities slightly higher than that of biodiesel, H1-H3, and petroleum diesel. A related metric is the NHOC, which is a measure of the energy contained in a given quantity of a compound. Additionally reported in Table 2 is the lower heating value (LHV) of compounds 1-5. The LHV of a fuel is defined as the amount of heat released by combusting a specified quantity (initially at 25° C.) and returning the temperature of the combustion products to 150° C., which assumes the latent heat of vaporization of water in the reaction products is not recovered.

[3] = Net heat of combustion (combustion calorimeter); format: physicochemical
Description: as §1, §2

Water solubility = format: physicochemical
Boiling point = format: physicochemical
Flash point = format: physicochemical
[4] = Cloud point of dioxolane blends with 7-component surrogate diesel; format: physicochemical
Description: The dioxolanes were blended in percentages of 10%, 20%, or 30% with a 7-component surrogate diesel.
The values range from −9.9° C. to −13.3° C. The numbers of the samples correspond with the dioxolanes as-referenced in FIG. 30. Cloud point is a quality specification for diesel fuels. This is an indicator of the tendency of a fuel to form wax crystals when cold. These crystals can clog the atomizer that injects fuel into the combustion chamber of a diesel engine. Cloud point specifications are a maximum temperature. A material with lower cloud point is more desirable.

[5] = Lower heating value (LHV); format: physicochemical
Text: as §2

[6] = taken from references; cited from earlier work
[7] = 40° C.; taken from references; cited from earlier work
[8] = 25° C.; taken from references; cited from earlier work
[9] = taken from references, cited from earlier work; for Freezing/MP: freezing point: first value of cell; for Freezing/MP: melting point: second value of cell
[10] = 10% dioxolane in 7-component surrogate diesel (surrogate alone −10.5 ° C.)
[11] = 20% dioxolane in 7-component surrogate diesel (surrogate alone −10.5 ° C.)
[12] = 30% dioxolane in 7-component surrogate diesel (surrogate alone −10.5 ° C.)

| Viscosity [1] [mm^2 s^−1] | Density [2] [g/mL] | NHOC (net heat of combustion) [3] [mJ/L] | solubility (Water solubility) [µg/mL] | Boiling Point (Boiling point) [°C] | Flash Point (Flash point) [°C] | Cloud point of blend [4, 10] [°C] | Cloud point of blend [4, 11] [°C] | Cloud point of blend [4, 12] [°C] | LHV (lower heating value) [5] [mJ/kg] | SMILES | NHOC (net heat of combustion) [6] [mJ/L] | Viscosity [7] [mm^2 s^−1] | Density [8] [g/mL] | Freezing/MP: freezing point [9] [°C] | Freezing/MP: melting point [9] [°C] |
| --- | --- | --- | --- | --- | --- | --- | --- | --- | --- | --- | --- | --- | --- | --- | --- |
| 1.26 | 0.893 | 29.45 | < 40 | 174 | 54.4 | −10.3 | −10.8 | −10.8 | 32.98 | CCC(CC)C1OC(C)C(C)O1 (centres unmarked) [Compound 1, 2-(1-Ethylpropyl)-4,5-dimethyl-1,3-dioxolane] | – | – | – | – | – |
| 1.88 | 0.885 | 30.41 | < 40 | 184 | 58.3 | −10.3 | −10.8 | −12.5 | 34.36 | CCCCC(CC)C1OC(C)C(C)O1 (centres unmarked) [Compound 2, 2-(1-Ethylpentyl)-4,5-dimethyl-1,3-dioxolane] | – | – | – | – | – |
| 0.94 | 0.894 | 27.67 | < 40 | 161 | 42.5 | −11.5 | −12 | −13.3 | 30.95 | CCCC1OC(C)C(C)O1 (centres unmarked) [Compound 3, 4,5-Dimethyl-2-propyl-1,3-dioxolane] | – | – | – | – | – |
| 1.49 | 0.887 | 29.20 | < 40 | 177 | 69.5 | −10.1 | −10.8 | −10.4 | 32.92 | CCCCCC1OC(C)C(C)O1 (centres unmarked) [Compound 4, 4,5-Dimethyl-2-pentyl-1,3-dioxolane] | – | – | – | – | – |
| 2.34 | 0.883 | 30.06 | < 40 | 188 | 79.5 | −9.9 | −10.8 | −11.6 | 34.04 | CCCCCCCC1OC(C)C(C)O1 (centres unmarked) [Compound 5, 4,5-Dimethyl-2-heptyl-1,3-dioxolane] | – | – | – | – | – |
| – | – | – | – | – | – | – | – | – | – | CCCCCCCCCCCC1(C)OC(C)C(C)O1 (centres unmarked) [H1, 2,4,5-trimethyl-2-undecyl-1,3-dioxolane] | 31.99 | 4.44 | 0.868 | −51 | −18 |
| – | – | – | – | – | – | – | – | – | – | CCCCCCCCCCCC1(C)OCC(C)O1 (centres unmarked) [H2, 2,4-dimethyl-2-undecyl-1,3-dioxolane] | 31.99 | 5.15 | 0.872 | −48 | −14 |
| – | – | – | – | – | – | – | – | – | – | CCCCCCCCCCCC1(C)OCCO1 [H3, 2-methyl-2-undecyl-1,3-dioxolane] | 32.28 | 4.98 | 0.883 | −25 | 0 |
